Data taken from ChEMBL document CHEMBL1201862, “PubChem BioAssay data set” (2004).
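How tested: cells in 96-well plates exposed to compound for 48 hours at five concentrations. GI50 = concentration required for 50% inhibition of growth.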 The source made the active and inactive calls. No stated cut-off is given here; in the data, active = GI50 up to about 1.1 µM and inactive = higher.

Tests used:
Experiment in all cases: NCI tumour cell line growth inhibition, 48 h
CCRF-CEM = test system: CCRF-CEM
Malme-3M = test system: Malme-3M
SNB-19 = test system: SNB-19
HOP-62 = test system: HOP-62
EKVX = test system: EKVX
RXF 393 = test system: RXF 393
SK-MEL-2 = test system: SK-MEL-2
OVCAR-8 = test system: OVCAR-8
SK-OV-3 = test system: SK-OV-3
OVCAR-3 = test system: OVCAR-3
786-0 = test system: 786-0
SNB-75 = test system: SNB-75
M14 = test system: M14
NCI-H522 = test system: NCI-H522
OVCAR-4 = test system: OVCAR-4
HL-60 = test system: HL-60
HT-29 = test system: HT-29
NCI-H460 = test system: NCI-H460
CAKI-1 = test system: CAKI-1
NCI/ADR-RES = test system: NCI/ADR-RES
MOLT-4 = test system: MOLT-4
MDA-MB-435 = test system: MDA-MB-435
BT-549 = test system: BT-549
ACHN = test system: ACHN
HOP-92 = test system: HOP-92
PC-3 = test system: PC-3
SN12C = test system: SN12C
SF-539 = test system: SF-539
SF-295 = test system: SF-295
DU-145 = test system: DU-145
MCF7 = test system: MCF7
UO-31 = test system: UO-31
MDA-N = test system: MDA-N
Hs-578T = test system: Hs-578T
HCT-116 = test system: HCT-116
SW-620 = test system: SW-620
K562 = test system: K562
LOX IMVI = test system: LOX IMVI
SK-MEL-28 = test system: SK-MEL-28
TK-10 = test system: TK-10
HCC 2998 = test system: HCC 2998
NCI-H226 = test system: NCI-H226
T47D = test system: T47D
COLO 205 = test system: COLO 205
U-251 = test system: U-251
SK-MEL-5 = test system: SK-MEL-5
A549 = test system: A549
UACC-62 = test system: UACC-62
OVCAR-5 = test system: OVCAR-5
MDA-MB-231 = test system: MDA-MB-231
IGROV-1 = test system: IGROV-1
NCI-H23 = test system: NCI-H23
RPMI-8226 = test system: RPMI-8226
KM12 = test system: KM12
SR = test system: SR
A498 = test system: A498
HCT-15 = test system: HCT-15
SF-268 = test system: SF-268
UACC-257 = test system: UACC-257

SMILES: CCOP(C)(=O)/C(Cc1ccc(OC)c(OC)c1)=N\O (stereo unspecified)
- GI50 (CCRF-CEM): > 100 µM (inactive)
- GI50 (Malme-3M): > 100 µM (inactive)
- GI50 (SNB-19): > 100 µM (inactive)
- GI50 (HOP-62): > 100 µM (inactive)
- GI50 (EKVX): > 100 µM (inactive)
- GI50 (RXF 393): > 100 µM (inactive)
- GI50 (SK-MEL-2): > 100 µM (inactive)
- GI50 (OVCAR-8): > 100 µM (inactive)
- GI50 (SK-OV-3): > 100 µM (inactive)
- GI50 (OVCAR-3): > 100 µM (inactive)
- GI50 (786-0): > 100 µM (inactive)
- GI50 (SNB-75): > 100 µM (inactive)
- GI50 (M14): > 100 µM (inactive)
- GI50 (NCI-H522): > 100 µM (inactive)
- GI50 (OVCAR-4): > 100 µM (inactive)
- GI50 (HL-60): > 100 µM (inactive)
- GI50 (HT-29): > 100 µM (inactive)
- GI50 (NCI-H460): > 100 µM (inactive)
- GI50 (CAKI-1): > 100 µM (inactive)
- GI50 (NCI/ADR-RES): > 100 µM (inactive)
- GI50 (MOLT-4): > 100 µM (inactive)
- GI50 (MDA-MB-435): > 100 µM (inactive)
- GI50 (BT-549): > 100 µM (inactive)
- GI50 (ACHN): > 100 µM (inactive)
- GI50 (HOP-92): > 100 µM (inactive)
- GI50 (PC-3): > 100 µM (inactive)
- GI50 (SN12C): > 100 µM (inactive)
- GI50 (SF-539): > 100 µM (inactive)
- GI50 (SF-295): > 100 µM (inactive)
- GI50 (DU-145): > 100 µM (inactive)
- GI50 (MCF7): > 100 µM (inactive)
- GI50 (UO-31): > 100 µM (inactive)
- GI50 (MDA-N): > 100 µM (inactive)
- GI50 (Hs-578T): > 100 µM (inactive)
- GI50 (HCT-116): > 100 µM (inactive)
- GI50 (SW-620): > 100 µM (inactive)
- GI50 (K562): > 100 µM (inactive)
- GI50 (LOX IMVI): > 100 µM (inactive)
- GI50 (SK-MEL-28): > 100 µM (inactive)
- GI50 (TK-10): > 100 µM (inactive)
- GI50 (HCC 2998): > 100 µM (inactive)
- GI50 (NCI-H226): > 100 µM (inactive)
- GI50 (T47D): > 100 µM (inactive)
- GI50 (COLO 205): > 100 µM (inactive)
- GI50 (U-251): > 100 µM (inactive)
- GI50 (SK-MEL-5): > 100 µM (inactive)
- GI50 (A549): > 100 µM (inactive)
- GI50 (UACC-62): > 100 µM (inactive)
- GI50 (OVCAR-5): > 100 µM (inactive)
- GI50 (MDA-MB-231): > 100 µM (inactive)
- GI50 (IGROV-1): > 100 µM (inactive)
- GI50 (NCI-H23): > 100 µM (inactive)
- GI50 (RPMI-8226): > 100 µM (inactive)
- GI50 (KM12): > 100 µM (inactive)
- GI50 (SR): > 100 µM (inactive)
- GI50 (A498): > 100 µM (inactive)
- GI50 (HCT-15): > 100 µM

SMILES: CCOC(=O)C1C(=O)CC(O)(c2ccccc2)C(C(=O)OCC)C1c1ccc(N(C)C)cc1 (stereo unspecified)
- GI50 (CCRF-CEM): 17.3 µM (inactive)
- GI50 (Malme-3M): 18.2 µM (inactive)
- GI50 (SNB-19): 29.9 µM (inactive)
- GI50 (HOP-62): 30.8 µM (inactive)
- GI50 (EKVX): 40.9 µM (inactive)
- GI50 (RXF 393): 14.7 µM (inactive)
- GI50 (SK-MEL-2): 33 µM (inactive)
- GI50 (OVCAR-8): 20 µM (inactive)
- GI50 (SK-OV-3): 18.2 µM (inactive)
- GI50 (OVCAR-3): 24 µM (inactive)
- GI50 (786-0): 26.7 µM (inactive)
- GI50 (SNB-75): 24.9 µM (inactive)
- GI50 (M14): 35.6 µM (inactive)
- GI50 (NCI-H522): 9.71 µM (inactive)
- GI50 (OVCAR-4): 59.2 µM (inactive)
- GI50 (HL-60): 8.18 µM (inactive)
- GI50 (HT-29): 15.8 µM (inactive)
- GI50 (NCI-H460): 20 µM (inactive)
- GI50 (CAKI-1): 51.2 µM (inactive)
- GI50 (NCI/ADR-RES): 26.6 µM (inactive)
- GI50 (MOLT-4): 23.5 µM (inactive)
- GI50 (MDA-MB-435): 5.04 µM (inactive)
- GI50 (BT-549): 28.6 µM (inactive)
- GI50 (ACHN): 50.4 µM (inactive)
- GI50 (HOP-92): 19.7 µM (inactive)
- GI50 (PC-3): 18.3 µM (inactive)
- GI50 (SN12C): 50.2 µM (inactive)
- GI50 (SF-539): 18.1 µM (inactive)
- GI50 (SF-295): 5.71 µM (inactive)
- GI50 (DU-145): 57.1 µM (inactive)
- GI50 (MCF7): 21.8 µM (inactive)
- GI50 (UO-31): 49.8 µM (inactive)
- GI50 (MDA-N): 6.44 µM (inactive)
- GI50 (Hs-578T): 2.1 µM (inactive)
- GI50 (SF-268): 24.9 µM (inactive)
- GI50 (HCT-116): 23.8 µM (inactive)
- GI50 (SW-620): 19.8 µM (inactive)
- GI50 (K562): 6.21 µM (inactive)
- GI50 (LOX IMVI): 27.5 µM (inactive)
- GI50 (SK-MEL-28): 45.6 µM (inactive)
- GI50 (TK-10): > 59.8 µM (inactive)
- GI50 (HCC 2998): 34.4 µM (inactive)
- GI50 (NCI-H226): 51.4 µM (inactive)
- GI50 (UACC-257): 63.8 µM (inactive)
- GI50 (T47D): 27.6 µM (inactive)
- GI50 (COLO 205): 17.6 µM (inactive)
- GI50 (U-251): 24.7 µM (inactive)
- GI50 (SK-MEL-5): 22.3 µM (inactive)
- GI50 (A549): 35.5 µM (inactive)
- GI50 (UACC-62): 33.4 µM (inactive)
- GI50 (OVCAR-5): 74.3 µM (inactive)
- GI50 (MDA-MB-231): 28.2 µM (inactive)
- GI50 (IGROV-1): 31.2 µM (inactive)
- GI50 (NCI-H23): > 45.7 µM (inactive)
- GI50 (RPMI-8226): 13.3 µM (inactive)
- GI50 (KM12): 20.3 µM (inactive)
- GI50 (SR): 7.33 µM (inactive)
- GI50 (A498): 31.6 µM (inactive)
- GI50 (HCT-15): 34.7 µM
